{
  "source": "paper PMC10046071",
  "about": "(Biomedicines, 2023)",
  "key": {"[1]": {"details": "493 subjects with CML; cited from earlier work"}, "[2]": {"details": "no reference given; cited from earlier work"}, "[3]": {"details": "4 CML patients"}, "[4]": {"details": "in vitro, human plasma; cited from earlier work"}, "[5]": {"details": "cited from earlier work"}, "[6]": {"assay": "Therapeutic drug monitoring: steady-state plasma pharmacokinetics in patients with CML", "details": "for Tmax / Cmin / Cmax: steady state; for CL/F: apparent oral clearance"}, "[7]": {"tested_on": "cytochrome P450 (CYP) 3A4", "details": "cited from earlier work"}, "[8]": {"assay": "Stability of stock and working solutions and of extracted samples in the autosampler", "assay_type": "physicochemical", "details": "for stock solution stability, value for accuracy: DMSO stock, 10 days at −80 °C, versus freshly made, CV 3.7%; for working solution stability, value for accuracy: methanol, 8 h at room temperature, with or without light, CV 6.5%", "from_the_text": "However, in the present study it has been conducted to study the stability of the stock and working solutions, freeze–thaw stability and autosampler stability. For all stability studies, the analyte stability should fall within 85−115% of the nominal concentration and was not allowed to deviate more than ±15% from the nominal concentration of all the QCs studied, as indicated in the Guidelines for Bioanalytical Methods Validation.\nOn the other hand, the stability of the working solutions in methanol on each test day was evaluated after 8 h at room temperature with light and in the dark.\nThe stability in the autosampler of the sample after the extraction process was evaluated at room temperature in the range between 2 and 8 h."}, "[9]": {"details": "17 patients, 300 mg twice-daily"}, "[10]": {"details": "co-administered with a high-fat meal"}, "[11]": {"details": "Patient 1, 200–300 mg twice-daily oral"}, "[12]": {"details": "Patient 2, 200–300 mg twice-daily oral"}, "[13]": {"details": "Patient 3, 200–300 mg twice-daily oral"}, "[14]": {"details": "Patient 4, 200–300 mg twice-daily oral"}},
  "note": "Values joined by “and” are separate entries in the source; they are usually repeats but may differ in a detail not shown here. Equal entries are not always repeated.",
  "data": [
    {"compound": "Cc1cn(-c2cc(NC(=O)c3ccc(C)c(Nc4nccc(-c5cccnc5)n4)c3)cc(C(F)(F)F)c2)cn1", "note": "[nilotinib, Nilotinib]", "values": [
      {"measurement": "trough concentration (Cmin) associated with longer times to complete cytogenetic response and MMR and shorter time to progression", "setting": "[1]", "result": "< 469.4", "unit": "ng/mL"},
      {"measurement": "aqueous solubility versus pH", "setting": "[2]", "result": "decreases significantly with increased pH"},
      {"measurement": "pKa", "setting": "[2]", "result": 12.38},
      {"measurement": "solubility", "setting": "[2]", "result": "good solubility in DMSO, organic solvents (methanol and acetonitrile) and acidic aqueous solution"},
      {"measurement": "Correlation of Cmin with ALT (U/L)", "setting": "[3]", "result": "−0.3552"},
      {"measurement": "Correlation of Cmin with AST (U/L)", "setting": "[3]", "result": "−0.0833"},
      {"measurement": "Correlation of Cmin with Alkaline phosphatase (U/L)", "setting": "[3]", "result": 0.7497},
      {"measurement": "Correlation of Cmin with Haemaglobin (g/dL)", "setting": "[3]", "result": "−0.0319"},
      {"measurement": "Correlation of Cmin with Haematocrit (%)", "setting": "[3]", "result": 0.0870},
      {"measurement": "Correlation of Cmin with Leukocytes (×10^3/µL)", "setting": "[3]", "result": "−0.9194"},
      {"measurement": "Correlation of Cmin with Neutrophils (×10^3/µL)", "setting": "[3]", "result": "−0.0280"},
      {"measurement": "Correlation of Cmin with Platelet (×10^3/µL)", "setting": "[3]", "result": "−0.6949"},
      {"measurement": "Correlation of Cmin with Serum bilirrubin (mg/dL)", "setting": "[3]", "result": "−0.4013"},
      {"measurement": "Correlation of Cmin with Serum creatinine (g/dL)", "setting": "[3]", "result": "−0.1897"},
      {"measurement": "plasma protein binding", "setting": "[4]", "result": "approximately 98%"},
      {"measurement": "Cmin at a steady state", "setting": "[5]; 300 mg twice-daily, some clinical trials, no reference given", "result": "~1123", "unit": "ng/mL"},
      {"measurement": "Cmax at steady state", "setting": "[5]; [9]", "result": 1360, "unit": "ng/mL"},
      {"measurement": "Cmin at steady state", "setting": "[5]; [9]", "result": 1123, "unit": "ng/mL"},
      {"measurement": "interindividual variability in exposure (coefficient of variation)", "setting": "[5]", "result": "32–64%"},
      {"measurement": "increase in the AUC", "setting": "[5]; [10]", "result": "50–82%"},
      {"measurement": "increase in the Cmax", "setting": "[5]; [10]", "result": "up to 112%"},
      {"measurement": "mean area under the curve (AUC)", "setting": "[5]; oral 400 mg twice daily", "result": "19.0 ± 9.1", "unit": "µg·h/mL"},
      {"measurement": "mean maximum plasma concentration (Cmax)", "setting": "[5]; oral 400 mg twice daily", "result": "2320 ± 1070", "unit": "ng/mL"},
      {"measurement": "t1/2", "setting": "[6]; Mean (SD) of 4 patients", "result": "78.1 (75.4) h"},
      {"measurement": "Tmax", "setting": "[6]; Mean (SD) of 4 patients", "result": "2.3 (1.3) h"},
      {"measurement": "Cmin", "setting": "[6]; Mean (SD) of 4 patients, 200–300 mg twice-daily", "result": "1193.5 ng/mL and 1193.5 (414.7) ng/mL"},
      {"measurement": "CL/F", "setting": "[6]; Patient 1", "result": 2.8, "unit": "L/h"},
      {"measurement": "t1/2", "setting": "[6]; Patient 1, elimination half-life", "result": 25.1, "unit": "h"},
      {"measurement": "Tmax", "setting": "[6]; Patient 1", "result": 1, "unit": "h"},
      {"measurement": "Cmax", "setting": "[6]; [11]", "result": 3491.4, "unit": "ng/mL"},
      {"measurement": "Cmin", "setting": "[6]; [11]", "result": 1633.9, "unit": "ng/mL"},
      {"measurement": "CL/F", "setting": "[6]; Patient 2", "result": 1.9, "unit": "L/h"},
      {"measurement": "t1/2", "setting": "[6]; Patient 2, elimination half-life", "result": 69.3, "unit": "h"},
      {"measurement": "Tmax", "setting": "[6]; Patient 2", "result": 2, "unit": "h"},
      {"measurement": "Cmax", "setting": "[6]; [12]", "result": 1137.2, "unit": "ng/mL"},
      {"measurement": "Cmin", "setting": "[6]; [12]", "result": 768.9, "unit": "ng/mL"},
      {"measurement": "CL/F", "setting": "[6]; Patient 3", "result": 0.6, "unit": "L/h"},
      {"measurement": "t1/2", "setting": "[6]; Patient 3, elimination half-life", "result": 187.4, "unit": "h"},
      {"measurement": "Tmax", "setting": "[6]; Patient 3", "result": 2, "unit": "h"},
      {"measurement": "Cmax", "setting": "[6]; [13]", "result": 1988.4, "unit": "ng/mL"},
      {"measurement": "Cmin", "setting": "[6]; [13]", "result": 1450.3, "unit": "ng/mL"},
      {"measurement": "CL/F", "setting": "[6]; Patient 4", "result": 5.7, "unit": "L/h"},
      {"measurement": "t1/2", "setting": "[6]; Patient 4, elimination half-life", "result": 30.7, "unit": "h"},
      {"measurement": "Tmax", "setting": "[6]; Patient 4", "result": 4, "unit": "h"},
      {"measurement": "Cmax", "setting": "[6]; [14]", "result": 1103.5, "unit": "ng/mL"},
      {"measurement": "Cmin", "setting": "[6]; [14]", "result": 920.7, "unit": "ng/mL"},
      {"measurement": "metabolizing enzymes", "setting": "[7]", "result": "metabolized primarily by cytochrome P450 (CYP) 3A4 isoform and with minor contributions from CYP2C8"},
      {"measurement": "stock solution stability, value for accuracy", "setting": "[8]", "result": "less than 1.5%"},
      {"measurement": "degradation on the autosampler", "setting": "[8]; extracted sample, up to 8 h, room temperature", "result": "< 8.3", "unit": "%"},
      {"measurement": "working solution stability, value for accuracy", "setting": "[8]", "result": "lower than 15.1%"}
    ]},
    {"compound": "Cc1cc(/C=C/C#N)cc(C)c1Nc1ccnc(Nc2ccc(C#N)cc2)n1", "note": "[rilpivirine]", "values": [
      {"measurement": "stock solution stability, value for accuracy", "setting": "[8]", "result": "less than 1.5%"},
      {"measurement": "working solution stability, value for accuracy", "setting": "[8]", "result": "lower than 15.1%"}
    ]}
  ]
}
